Where two headings read alike, the source gives them in different places.
Tests used:
PrPres [1] = format: in vivo; settings: C57BL/6 mice inoculated i.p. with strain C506M3; AmB 1 mg/kg from tA+15 days; sacrificed at tA+21 or tA+28; Western blot, versus untreated animals
PrPres [2] = test system: PrPres; parameters: species or system C57BL/6 mice; settings: mouse, in vivo, ip, 25 mg/kg

| Compound | inhibition of the accumulation of PrPres in the spleen (PrPres [1]) | inhibition of the accumulation of PrPres in the spleen (PrPres [2]) |
| --- | --- | --- |
| C[C@@H]1[C@H](O)[C@@H](C)/C=C/C=C/C=C/C=C/C=C/C=C/C=C/[C@H](O[C@@H]2O[C@H](C)[C@@H](O)[C@H](N)[C@@H]2O)C[C@@H]2O[C@](O)(C[C@@H](O)C[C@@H](O)[C@H](O)CC[C@@H](O)C[C@@H](O)CC(=O)O[C@H]1C)C[C@H](O)[C@H]2C(=O)O [AmB, amphotericin B] | significant inhibition of the accumulation of PrPres | – |
| dextran sulphate [DS500] | – | significant inhibition of the accumulation of PrPres |
